# Experimental data taken from patent US20070225255A1, “Use of Mitochondrially Targeted Antioxidant in the Treatment of Liver Diseases and Epithelial Cancers” (priority 2004, published 2007).
# Columns and labels:
# [1] = fed to mice on a long term basis; cited from earlier work
# DDC intoxicated mice = experiment: Tocopherol quinone content in isolated mouse liver mitochondria; assay type: in vivo; settings: DDC intoxicated mice with or without MitoQ
# Protocol: In order to evaluate oxidative stress in control versus DDC-intoxicated mice with or without treatment by using antioxidants according to the invention, tocopherol quinone (TQ) content (Gille L. et al., 2004, Biochemic. Pharmacology, 68: 373-381) in isolated liver mitochondria (all tested animal groups prepared according to protocols in Example 3) is performed. The mouse liver mitochondria are prepared according to modified protocol from Staniek K. and Nohl H., 1999, Biochem. et Biophys. Acta, 1413: 70-80; Mela L. and Sietz S., 1979, Methods in Enzymology, Academic Press Inc.: 39-46, and TQ content is normalized to several parameters including protein and cytochrome concentrations and activity tests of complex I (NADH dehydrogenase), complex II (succinate dehydrogenase), complex III (cytochrome bcl) and complex IV (cytochrome oxidase).
# A method for rat heart mitochondria (Staniek K. and Nohl H., 1999, Biochem. et Biophys. Acta, 1413: 70-80; Mela L. and Sietz S., 1979, Methods in Enzymology, Academic Press Inc.: 39-46) is adapted for mouse liver (ca. 10% weight compared to rat liver) isolated from various animal groups according to Example 3. The isolation of liver is performed at 4° C. […] The protein concentration is measured with the Biuret method (BSA as standard, at least […] protein needed for double determination) with expected yield of 3 to 6 mg. […]
# HUH-7 cells = experiment: ROS production induced by Antimycin A, lucigenin chemiluminescence assay; assay type: cell-based, human; settings: Antimycin A 0, 1 and 5 μM, MitoQ 0 to 1000 nmol, 3 hours at 37° C.
# Protocol: HUH-7 cells are incubated in 6 well plates and stimulated with Antimycin A in concentration 0-25 μM (0, 1 and 5 μM) simultaneously with or without MitoQ in concentration range from 0 to 1000 nmol dissolved in DMEM (Gibco) for 3 hours at 37° C. The light reaction between superoxide and lucigenin is detected. X axis represents a concentration range of MitoQ [nM] whereas y axis the chemiluminescence signal expressed as average counts per minute [cpm] after normalization to cell number determined by cell counter.
# Another approach allows measurement of the ROS production induced by antimycin A or rotenone by using lucigenin chemiluminescence assay (experimental set up as in Example 9) in e.g. HUH-7 or Tib-73. HUH-7 cells are incubated in 6 well plates and stimulated by using antimycin A in concentration 0-25 μM (preferably 0, 1 and 5 μM) simultaneously with or without MitoQ (or MitoS) in concentration range from 0 to 1000 nmol dissolved in DMEM (Gibco) for 3 hours at 37° C. […] The light reaction between superoxide and lucigenin is detected using a chemiluminescence reader (Lumistar, BMG laboratories, Germany). The chemiluminescence signal is expressed as average counts per minute and normalized to cell number as determined by cell counter (Casy Technology Instrument, Schärfe-System, Germany).
substance,measurement,setting,value
MitoQ,"concentrations within the brain, heart, liver, and muscle",[1],potentially therapeutically effective concentrations
same,safety of feeding,[1],fed safely
same,tocopherol quinone (TQ) levels in liver mitochondria,DDC intoxicated mice,elevated TQ levels in DDC intoxicated mice when compared to controls and mice treated with MitoQ
same,ROS formation (lucigenin chemiluminescence),HUH-7 cells,significant reduction in ROS formation
